Experimental data as given in US20060130172A1, “Gene encoding resistance to acetolactate synthase-inhibiting herbicides” (priority 2003, published 2006).

Columns and labels:
R11-AMACH smooth pigweed = assay: Greenhouse screen of ALS-inhibiting herbicides on resistant smooth pigweed biotype; type: in vivo, Amaranthus hybridus L.; conditions: 3 WAT; for Biomass Reduction: compared to untreated plant biomass; for Biomass: plant dry weight; for Visual Control: scale 0-99%
Source text: (§1) Seeds from a smooth pigweed (Aniaranthus hybridus L.) population (R11-AMACH) were collected from a field in southeastern Pennsylvania where extreme ALS-inhibitor herbicide selection pressure was imposed over a several year period within continuous soybean production. R11-AMACH was selected naturally with ALS-inhibiting herbicides representative of the SU, IMI, and TP herbicide chemistries.
(§2) To establish levels and patterns of ALS resistance, R11-AMACH and an ALS susceptible smooth pigweed biotype (S-AMACH) were screened in the greenhouse with various rates of the ALS-inhibiting herbicides, chlorimuron (SU), thifensulfuron (SU), imazethapyr (IMI), pyrithiobac (POB), and cloransulam-methyl (TP). Rates evaluated were based on a log10 scale that included 0, 1/100×, 1/10×, 1×, 10×, and 100×, where 1× corresponds to the normal use rate in the field. R11-AMACH responded differently to the rate increase as compared to S-AMACH. […] Visual control, height, biomass, and biomass reduction are presented separately for chlorimuron (Table 3), thifensulfuron (Table 4), imazethapyr (Table 5), pyrithiobac (Table 6), and cloransulam (Table 7). Evaluations and measurements were recorded 3 weeks after herbicide treatment (WAT). Visual control was based on a scale of 0-99%, where 0% represents no control and 99% represents complete control. Biomass represents plant dry weights recorded several days after plants were harvested. Biomass reduction was calculated based on the amount of biomass reduced by herbicide treatment compared to the untreated plant biomass.

S-AMACH smooth pigweed = assay: Greenhouse screen of ALS-inhibiting herbicides on susceptible smooth pigweed biotype; type: in vivo, Amaranthus hybridus L.; conditions: 3 WAT; for Biomass Reduction: compared to untreated plant biomass; for Biomass: plant dry weight; for Visual Control: scale 0-99%
Source text: as §1, §2

[1] = rate 1/100× (1× = normal use rate in the field)

| SMILES | Height (R11-AMACH smooth pigweed; rate 1/10×) [cm] | Biomass Reduction (R11-AMACH smooth pigweed; rate 1/10×) [%] | Biomass (R11-AMACH smooth pigweed; rate 1/10×) [g] | Visual Control (R11-AMACH smooth pigweed; rate 1/10×) [%] | Visual Control (R11-AMACH smooth pigweed; [1]) [%] | Height (R11-AMACH smooth pigweed; rate 1/100×) [cm] | Biomass Reduction (R11-AMACH smooth pigweed; rate 1/100×) [%] | Biomass (R11-AMACH smooth pigweed; rate 1/100×) [g] | Visual Control (R11-AMACH smooth pigweed; rate 1× (normal use rate)) [%] | Height (R11-AMACH smooth pigweed; rate 1×) [cm] | Biomass Reduction (R11-AMACH smooth pigweed; rate 1×) [%] | Biomass (R11-AMACH smooth pigweed; rate 1×) [g] | Height (R11-AMACH smooth pigweed; rate 10×) [cm] | Biomass Reduction (R11-AMACH smooth pigweed; rate 10×) [%] | Biomass (R11-AMACH smooth pigweed; rate 10×) [g] | Visual Control (R11-AMACH smooth pigweed; rate 10×) [%] | Height (R11-AMACH smooth pigweed; rate 100×) [cm] | Biomass Reduction (R11-AMACH smooth pigweed; rate 100×) [%] | Biomass (R11-AMACH smooth pigweed; rate 100×) [g] | Visual Control (R11-AMACH smooth pigweed; rate 100×) [%] | further results |
| --- | --- | --- | --- | --- | --- | --- | --- | --- | --- | --- | --- | --- | --- | --- | --- | --- | --- | --- | --- | --- | --- |
| COc1cc(Cl)nc(NC(=O)NS(=O)(=O)c2ccccc2C(=O)O)n1 [chlorimuron, 2-[[[[(4-chloro-6-methoxy-2-pyrimidinyl)-amino]carbonyl]amino]-sulfonyl]benzoic acid] | 26.5 | 3.7 | 3.66 | 6 | 5 | 23.5 | 10.0 | 3.42 | 15 | 21.8 | 3.5 | 3.67 | 23.5 | 17.1 | 3.15 | 18 | 14.8 | 56.8 | 1.64 | 39 | Height (S-AMACH smooth pigweed; rate 1/10×): 14.3 cm; Biomass Reduction (S-AMACH smooth pigweed; rate 1/10×): 52.0%; Biomass (S-AMACH smooth pigweed; rate 1/10×): 1.65 g; Visual Control (S-AMACH smooth pigweed; rate 1/10×): 20%; Height (S-AMACH smooth pigweed; rate 1/100×): 27.8 cm; Biomass Reduction (S-AMACH smooth pigweed; rate 1/100×): 30.9%; Biomass (S-AMACH smooth pigweed; rate 1/100×): 2.37 g; Visual Control (S-AMACH smooth pigweed; rate 1/100×): 9%; Visual Control (S-AMACH smooth pigweed; rate 1× (normal use rate)): 81%; Height (S-AMACH smooth pigweed; rate 1×): 4.8 cm; Biomass Reduction (S-AMACH smooth pigweed; rate 1×): 95.8%; Biomass (S-AMACH smooth pigweed; rate 1×): 0.14 g; Height (S-AMACH smooth pigweed; rate 10×): 1.0 cm; Biomass Reduction (S-AMACH smooth pigweed; rate 10×): 98.6%; Biomass (S-AMACH smooth pigweed; rate 10×): 0.05 g; Visual Control (S-AMACH smooth pigweed; rate 10×): 99%; Height (S-AMACH smooth pigweed; rate 100×): 1.3 cm; Biomass Reduction (S-AMACH smooth pigweed; rate 100×): 96.7%; Biomass (S-AMACH smooth pigweed; rate 100×): 0.11 g; Visual Control (S-AMACH smooth pigweed; rate 100×): 99% |
| COc1nc(C)nc(NC(=O)NS(=O)(=O)c2ccsc2C(=O)O)n1 [thifensulfuron, 3-[[[[(4-methoxy-6-methyl-1,3,5-triazin-2-yl)amino]carbonyl]-amino]sulfonyl]-2-thiophenecarboxylic acid] | 32.5 | −17.1 | 4.45 | 9 | 4 | 36.0 | −10.8 | 4.21 | 22 | 23.0 | 8.4 | 3.48 | 15.8 | 40.8 | 2.25 | 38 | 6.8 | 84.7 | 0.58 | 64 | Height (S-AMACH smooth pigweed; rate 1/10×): 11.0 cm; Biomass Reduction (S-AMACH smooth pigweed; rate 1/10×): 75.2%; Biomass (S-AMACH smooth pigweed; rate 1/10×): 0.85 g; Visual Control (S-AMACH smooth pigweed; rate 1/10×): 47%; Height (S-AMACH smooth pigweed; rate 1/100×): 25.0 cm; Biomass Reduction (S-AMACH smooth pigweed; rate 1/100×): 48.7%; Biomass (S-AMACH smooth pigweed; rate 1/100×): 1.76 g; Visual Control (S-AMACH smooth pigweed; rate 1/100×): 22%; Visual Control (S-AMACH smooth pigweed; rate 1× (normal use rate)): 98%; Height (S-AMACH smooth pigweed; rate 1×): 2.0 cm; Biomass Reduction (S-AMACH smooth pigweed; rate 1×): 98.0%; Biomass (S-AMACH smooth pigweed; rate 1×): 0.07 g; Height (S-AMACH smooth pigweed; rate 10×): 0.3 cm; Biomass Reduction (S-AMACH smooth pigweed; rate 10×): 98.8%; Biomass (S-AMACH smooth pigweed; rate 10×): 0.04 g; Visual Control (S-AMACH smooth pigweed; rate 10×): 99%; Height (S-AMACH smooth pigweed; rate 100×): 0.5 cm; Biomass Reduction (S-AMACH smooth pigweed; rate 100×): 99.1%; Biomass (S-AMACH smooth pigweed; rate 100×): 0.03 g; Visual Control (S-AMACH smooth pigweed; rate 100×): 99% |
| COc1cc(OC)nc(Sc2cccc(Cl)c2C(=O)O)n1 [pyrithiobac, 2-chloro-6-[(4,6-dimethoxy-2-pyrimidinyl)thio]benzoic acid] | 22.0 | 36.3 | 2.42 | 21 | 7 | 26.5 | 26.8 | 2.78 | 30 | 17.8 | 37.4 | 2.38 | 11.0 | 71.8 | 1.07 | 48 | 2.5 | 98.2 | 0.07 | 97 | Height (S-AMACH smooth pigweed; rate 1/10×): 8.8 cm; Biomass Reduction (S-AMACH smooth pigweed; rate 1/10×): 89.2%; Biomass (S-AMACH smooth pigweed; rate 1/10×): 0.37 g; Visual Control (S-AMACH smooth pigweed; rate 1/10×): 59%; Height (S-AMACH smooth pigweed; rate 1/100×): 21.8 cm; Biomass Reduction (S-AMACH smooth pigweed; rate 1/100×): 49.6%; Biomass (S-AMACH smooth pigweed; rate 1/100×): 1.73 g; Visual Control (S-AMACH smooth pigweed; rate 1/100×): 16%; Visual Control (S-AMACH smooth pigweed; rate 1× (normal use rate)): 99%; Height (S-AMACH smooth pigweed; rate 1×): 2.0 cm; Biomass Reduction (S-AMACH smooth pigweed; rate 1×): 98.0%; Biomass (S-AMACH smooth pigweed; rate 1×): 0.07 g; Height (S-AMACH smooth pigweed; rate 10×): 1.8 cm; Biomass Reduction (S-AMACH smooth pigweed; rate 10×): 96.5%; Biomass (S-AMACH smooth pigweed; rate 10×): 0.12 g; Visual Control (S-AMACH smooth pigweed; rate 10×): 99%; Height (S-AMACH smooth pigweed; rate 100×): 0.5 cm; Biomass Reduction (S-AMACH smooth pigweed; rate 100×): 98.8%; Biomass (S-AMACH smooth pigweed; rate 100×): 0.04 g; Visual Control (S-AMACH smooth pigweed; rate 100×): 99% |
| CCOc1nc(F)cc2nc(S(=O)(=O)Nc3c(Cl)cccc3C(=O)OC)nn12 [cloransulammethyl] | 34.5 | 24.7 | 8.16 | 23 | 0 | 47.8 | 0.5 | 10.78 | 16 | 37.6 | 30.8 | 7.49 | 32.0 | 40.5 | 6.44 | 39 | 12.2 | 75.3 | 2.68 | 63 | Height (S-AMACH smooth pigweed; rate 1/10×): 3.6 cm; Biomass Reduction (S-AMACH smooth pigweed; rate 1/10×): 97.1%; Biomass (S-AMACH smooth pigweed; rate 1/10×): 0.25 g; Visual Control (S-AMACH smooth pigweed; rate 1/10×): 91%; Height (S-AMACH smooth pigweed; rate 1/100×): 0.7 cm; Biomass Reduction (S-AMACH smooth pigweed; rate 1/100×): 99.8%; Biomass (S-AMACH smooth pigweed; rate 1/100×): 0.02 g; Visual Control (S-AMACH smooth pigweed; rate 1/100×): 97%; Visual Control (S-AMACH smooth pigweed; rate 1× (normal use rate)): 96%; Height (S-AMACH smooth pigweed; rate 1×): 1.3 cm; Biomass Reduction (S-AMACH smooth pigweed; rate 1×): 99.1%; Biomass (S-AMACH smooth pigweed; rate 1×): 0.08 g; Height (S-AMACH smooth pigweed; rate 10×): 0.0 cm; Biomass Reduction (S-AMACH smooth pigweed; rate 10×): 100.0%; Biomass (S-AMACH smooth pigweed; rate 10×): 0.00 g; Visual Control (S-AMACH smooth pigweed; rate 10×): 99%; Height (S-AMACH smooth pigweed; rate 100×): 0.0 cm; Biomass Reduction (S-AMACH smooth pigweed; rate 100×): 100.0%; Biomass (S-AMACH smooth pigweed; rate 100×): 0.00 g; Visual Control (S-AMACH smooth pigweed; rate 100×): 99% |
